Test results as given in patent publication US11739098B2 (BRISTOL-MYERS SQUIBB COMPANY, priority 2017, dated 2023).

What was measured:
Assay type in all cases: cell-based
human TLR8 = target: T1, human TLR8 (Homo sapiens, UniProt Q9NR97); assay: TLR8 inhibition reporter assay (HEK-Blue cells, SEAP reporter, R848 stimulation); conditions: HEK-Blue cells overexpressing human TLR8, SEAP reporter, R848 15.9 μM
T1 construct: host or cells: HEK-Blue cells (HEK293-derived reporter line)
T1 sequence (Q9NR97 27-1041): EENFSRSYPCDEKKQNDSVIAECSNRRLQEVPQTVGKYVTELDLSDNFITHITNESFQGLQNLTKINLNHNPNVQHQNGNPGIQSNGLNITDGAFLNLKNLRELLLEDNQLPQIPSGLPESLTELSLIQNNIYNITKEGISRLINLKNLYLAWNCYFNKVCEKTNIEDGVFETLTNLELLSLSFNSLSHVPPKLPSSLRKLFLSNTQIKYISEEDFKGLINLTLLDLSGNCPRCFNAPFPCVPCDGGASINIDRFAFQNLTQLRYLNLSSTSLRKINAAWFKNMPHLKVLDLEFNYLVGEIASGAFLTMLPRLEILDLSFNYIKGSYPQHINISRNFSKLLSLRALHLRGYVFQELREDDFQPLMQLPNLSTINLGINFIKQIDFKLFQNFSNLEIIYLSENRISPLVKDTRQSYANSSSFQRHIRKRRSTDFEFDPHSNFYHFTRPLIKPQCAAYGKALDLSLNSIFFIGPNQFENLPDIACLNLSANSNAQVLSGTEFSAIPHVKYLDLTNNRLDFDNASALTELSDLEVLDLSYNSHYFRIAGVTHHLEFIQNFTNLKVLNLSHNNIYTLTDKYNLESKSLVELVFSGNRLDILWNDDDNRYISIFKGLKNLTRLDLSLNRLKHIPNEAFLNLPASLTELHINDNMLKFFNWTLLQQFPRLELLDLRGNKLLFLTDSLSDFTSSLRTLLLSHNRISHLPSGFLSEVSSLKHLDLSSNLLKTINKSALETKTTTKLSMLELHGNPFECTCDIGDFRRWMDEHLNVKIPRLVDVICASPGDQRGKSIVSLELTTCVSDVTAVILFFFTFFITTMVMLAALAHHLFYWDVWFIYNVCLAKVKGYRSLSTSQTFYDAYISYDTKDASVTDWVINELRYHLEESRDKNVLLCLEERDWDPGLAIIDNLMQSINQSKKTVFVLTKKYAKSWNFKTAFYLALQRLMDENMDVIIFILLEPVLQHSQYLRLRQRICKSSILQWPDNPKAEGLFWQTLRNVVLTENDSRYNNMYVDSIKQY
Procedure, shortened: (§1)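 Percent inhibition of agonist-induced SEAP secretion in HEK-Blue cells after 22 h at 37 °C. Stimuli: 7.5 μM gardiquimod, 15.9 μM R848, 5 nM ODN2006 for TLR7, TLR8 and TLR9, added after 30 min compound exposure over a 0.05 nM–50 μM range.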

human TLR9 = target: T2, human TLR9 (Homo sapiens, UniProt Q9NR96); assay: TLR9 inhibition reporter assay (HEK-Blue cells, SEAP reporter, ODN2006 stimulation); conditions: HEK-Blue cells overexpressing human TLR9, SEAP reporter, ODN2006 5 nM
T2 construct: host or cells: HEK-Blue cells (HEK293-derived reporter line)
T2 sequence (Q9NR96 26-1032): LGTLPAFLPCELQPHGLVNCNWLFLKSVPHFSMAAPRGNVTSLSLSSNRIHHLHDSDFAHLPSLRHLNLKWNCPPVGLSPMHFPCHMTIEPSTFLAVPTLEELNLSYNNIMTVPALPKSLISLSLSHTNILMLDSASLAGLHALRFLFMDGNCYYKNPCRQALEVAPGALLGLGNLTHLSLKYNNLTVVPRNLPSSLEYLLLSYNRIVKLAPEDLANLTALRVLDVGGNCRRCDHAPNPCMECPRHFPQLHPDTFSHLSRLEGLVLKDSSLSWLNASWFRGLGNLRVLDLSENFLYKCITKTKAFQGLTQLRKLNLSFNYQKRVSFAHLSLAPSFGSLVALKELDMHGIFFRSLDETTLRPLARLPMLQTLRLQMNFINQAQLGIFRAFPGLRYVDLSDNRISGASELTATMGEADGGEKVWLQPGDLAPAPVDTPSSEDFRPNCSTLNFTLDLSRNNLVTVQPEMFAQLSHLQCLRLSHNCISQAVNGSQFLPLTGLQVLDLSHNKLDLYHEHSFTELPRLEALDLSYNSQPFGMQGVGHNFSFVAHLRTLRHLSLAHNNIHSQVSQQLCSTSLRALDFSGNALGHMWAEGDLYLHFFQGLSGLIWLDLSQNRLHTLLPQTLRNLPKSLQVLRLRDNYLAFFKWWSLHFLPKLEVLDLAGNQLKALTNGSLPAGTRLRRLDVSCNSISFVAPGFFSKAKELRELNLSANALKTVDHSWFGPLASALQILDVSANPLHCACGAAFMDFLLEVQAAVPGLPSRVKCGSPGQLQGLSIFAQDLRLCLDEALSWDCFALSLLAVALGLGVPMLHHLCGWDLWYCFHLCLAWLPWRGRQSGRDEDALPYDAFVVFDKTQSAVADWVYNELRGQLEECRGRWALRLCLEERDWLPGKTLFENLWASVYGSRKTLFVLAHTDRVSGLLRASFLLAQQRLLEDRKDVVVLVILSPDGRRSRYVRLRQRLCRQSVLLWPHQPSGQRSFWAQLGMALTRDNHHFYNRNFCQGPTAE
Procedure, shortened: as §1

human TLR7 = target: T3, human TLR7 (Homo sapiens, UniProt Q9NYK1); assay: TLR7 inhibition reporter assay (HEK-Blue cells, SEAP reporter, gardiquimod stimulation); conditions: HEK-Blue cells overexpressing human TLR7, SEAP reporter, gardiquimod 7.5 μM
T3 construct: host or cells: HEK-Blue cells (HEK293-derived reporter line)
T3 sequence (Q9NYK1 27-1049): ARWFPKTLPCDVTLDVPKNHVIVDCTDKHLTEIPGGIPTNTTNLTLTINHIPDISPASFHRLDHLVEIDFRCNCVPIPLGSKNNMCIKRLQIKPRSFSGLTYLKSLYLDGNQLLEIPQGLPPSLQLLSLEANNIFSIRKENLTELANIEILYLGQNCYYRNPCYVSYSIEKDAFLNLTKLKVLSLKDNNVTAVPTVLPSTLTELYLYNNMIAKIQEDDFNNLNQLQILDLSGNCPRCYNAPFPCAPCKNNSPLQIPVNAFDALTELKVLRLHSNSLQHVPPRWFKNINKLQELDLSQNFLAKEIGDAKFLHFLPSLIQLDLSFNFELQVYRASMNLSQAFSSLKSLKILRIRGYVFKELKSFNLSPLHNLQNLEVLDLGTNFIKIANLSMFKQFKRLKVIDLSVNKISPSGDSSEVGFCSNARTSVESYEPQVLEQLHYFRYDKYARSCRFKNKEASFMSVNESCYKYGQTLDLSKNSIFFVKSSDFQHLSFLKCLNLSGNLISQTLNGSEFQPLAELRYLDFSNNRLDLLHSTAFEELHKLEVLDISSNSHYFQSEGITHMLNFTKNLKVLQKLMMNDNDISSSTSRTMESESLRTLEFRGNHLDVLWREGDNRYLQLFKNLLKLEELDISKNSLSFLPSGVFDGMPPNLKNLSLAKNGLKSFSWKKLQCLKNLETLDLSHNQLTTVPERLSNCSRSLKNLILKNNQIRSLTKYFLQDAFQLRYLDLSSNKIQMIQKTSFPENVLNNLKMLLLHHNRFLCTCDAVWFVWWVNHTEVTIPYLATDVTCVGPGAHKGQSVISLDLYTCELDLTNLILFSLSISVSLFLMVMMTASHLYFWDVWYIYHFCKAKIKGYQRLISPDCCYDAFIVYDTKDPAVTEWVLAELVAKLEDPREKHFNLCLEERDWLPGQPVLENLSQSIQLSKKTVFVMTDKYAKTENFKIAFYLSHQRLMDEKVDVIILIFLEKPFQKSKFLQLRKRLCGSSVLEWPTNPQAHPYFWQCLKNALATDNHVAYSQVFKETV
Procedure, shortened: as §1

Row | SMILES | IC50 (human TLR8) [nM] | IC50 (human TLR9) [nM] | IC50 (human TLR7) [nM]
1 | CCc1c(-c2ccnc3[nH]ncc23)[nH]c2ccc(C3CCN(Cc4cscn4)CC3)cc12 [Example 927, 4-((4-(3-ethyl-2-(1H-pyrazolo[3,4-b]pyridin-4-yl)-1H-indol-5-yl)piperidin-1-yl)methyl)thiazole] | < 100 | 1000 to 50000 | < 100
2 | Cc1cc(-c2[nH]c3ccc(C4CCN(C(=O)CN5CCC(F)(F)C5)CC4)cc3c2C(C)C)cn2nnnc12 [Example 478, 2-(3,3-difluoropyrrolidin-1-yl)-1-(4-(3-isopropyl-2-(8-methyltetrazolo[1,5-a]pyridin-6-yl)-1H-indol-5-yl)piperidin-1-yl)ethan-1-one] | 100 to 1000 | > 50000 | < 100
3 | CC(C)c1c(-c2ccnc3cnn(C)c23)[nH]c2ccc(C3CCNCC3)cc12 [Example 42, 7-(3-isopropyl-5-(piperidin-4-yl)-1H-indol-2-yl)-1-methyl-1H-pyrazolo[4,3-b]pyridine] | 100 to 1000 | 1000 to 50000 | 1000 to 50000
4 | Cc1nc2c(-c3[nH]c4ccc(C5CCN(CC(C)(C)O)CC5)cc4c3C(C)C)ccc(C)n2n1 [Example 768, 1-(4-(2-(2,5-dimethyl-[1,2,4]triazolo[1,5-a]pyridin-8-yl)-3-isopropyl-1H-indol-5-yl)piperidin-1-yl)-2-methylpropan-2-ol] | 1000 to 50000 | 1000 to 50000 | > 3130
5 | Cc1ccnc2c1c(-c1[nH]c3ccc(C4CCN(C(=O)CN(C)C)CC4)cc3c1C(C)C)cn2C [Example 457, 1-(4-(2-(1,4-dimethyl-1H-pyrrolo[2,3-b]pyridin-3-yl)-3-isopropyl-1H-indol-5-yl)piperidin-1-yl)-2-(dimethylamino)ethan-1-one] | < 100 | 1000 to 50000 | < 100
6 | CCc1c(-c2ccnc3[nH]ccc23)[nH]c2ccc(C3CCN(C4CC(C)(C)NC(C)(C)C4)CC3)cc12 [Example 838, 4-(3-ethyl-5-(2′,2′,6′,6′-tetramethyl-[1,4′-bipiperidin]-4-yl)-1H-indol-2-yl)-1H-pyrrolo[2,3-b]pyridine] | < 100 | 100 to 1000 | < 100
7 | CC(C)c1c(-c2ccnc3[nH]ncc23)[nH]c2ccc(C3CCN(Cc4ncn(C)n4)CC3)cc12 [Example 865, 4-(3-isopropyl-5-(1-((1-methyl-1H-1,2,4-triazol-3-yl)methyl)piperidin-4-yl)-1H-indol-2-yl)-1H-pyrazolo[3,4-b]pyridine] | < 100 | 1000 to 50000 | < 100
8 | CC(C)c1c(-c2ccc3scnc3c2)[nH]c2ccc(C3CCNCC3)cc12 [Example 12, 5-(3-isopropyl-5-(piperidin-4-yl)-1H-indol-2-yl)benzo[d]thiazole] | 1000 to 50000 | 100 to 1000 | 100 to 1000
9 | CCc1c(-c2cnc3cc(C)cnn23)[nH]c2ccc(C3CCNCC3)cc12 [Example 108, 3-(3-ethyl-5-(piperidin-4-yl)-1H-indol-2-yl)-7-methylimidazo[1,2-b]pyridazine] | 1000 to 50000 | 1000 to 50000 | > 50000
10 | CC(C)c1c(-c2ccc3ncccc3c2)[nH]c2ccc(C3CCNCC3)cc12 [Example 190, 6-(3-isopropyl-5-(piperidin-4-yl)-1H-indol-2-yl)quinoline] | 1000 to 50000 | 1000 to 50000 | < 100
11 | Cc1cc(-c2[nH]c3ccc(C4CCN(C5COC5)CC4)cc3c2C(C)C)cn2nnnc12 [Example 741, 6-(3-isopropyl-5-(1-(oxetan-3-yl)piperidin-4-yl)-1H-indol-2-yl)-8-methyltetrazolo[1,5-a]pyridine] | < 100 | 1000 to 50000 | < 100
12 | CCc1c(-c2ccnc3[nH]cc(C)c23)[nH]c2ccc(C3CCNCC3)cc12 [Example 217, 4-(3-ethyl-5-(piperidin-4-yl)-1H-indol-2-yl)-3-methyl-1H-pyrrolo[2,3-b]pyridine] | 100 to 1000 | 100 to 1000 | 100 to 1000
13 | CCc1c(-c2ccnc3[nH]ncc23)[nH]c2ccc(C3CCNCC3F)cc12 (stereo not drawn) [Example 177, 4-(3-ethyl-5-(3-fluoropiperidin-4-yl)-1H-indol-2-yl)-1H-pyrazolo[3,4-b]pyridine] | < 100 | 1000 to 50000 | < 100
14 | CCc1c(-c2cc3cnn(C)c3cn2)[nH]c2ccc(C3CCNCC3)cc12 [Example 97, 5-(3-ethyl-5-(piperidin-4-yl)-1H-indol-2-yl)-1-methyl-1H-pyrazolo[3,4-c]pyridine] | 100 to 1000 | 1000 to 50000 | 1000 to 50000
15 | CNC(=O)CN1CCC(c2ccc3[nH]c(-c4ccn5nccc5c4)c(C(C)C)c3c2)CC1 [Example 405, 2-(4-(3-isopropyl-2-(pyrazolo[1,5-a]pyridin-5-yl)-1H-indol-5-yl)piperidin-1-yl)-N-methylacetamide] | < 100 | 1000 to 50000 | < 100
